Legend:
Format in all cases: in vivo, human
patients with AF/AFL = experiment: Pooled safety analysis of 5 controlled AF/AFL clinical studies, dronedarone 400 mg BID versus placebo
Text: (§1) The safety of dronedarone has been evaluated in a clinical development program that included, as of 12 Mar. 2008, a total of 8276 treated patients/healthy subjects in 55 completed studies. Of these, 4794 patients/healthy subjects received dronedarone.
Patients with the claimed indication of AF/AFL were included in 5 controlled clinical studies representing 88% (6285 patients) of the exposed patient population (7109 patients). Other patient populations, representing 14% (1028 patients) of the exposed patient population, were included in 13 clinical studies in patients with other cardiac conditions and patients with renal and hepatic impairment.
The safety profile of dronedarone 400 mg BID is derived from analysis of the 3282 patients in the 5 AF/AFL studies who were treated with dronedarone 400 mg BID and the 2875 who received placebo. The mean duration of exposure across the 5 studies in the dronedarone 400 mg BID group was 13.5 months, representing total exposure of 3684 patient-years. In the ATHENA study, the maximum follow-up was 30 months.
Discontinuation due to adverse reactions occurred in 11.8% of patients in the dronedarone 400 mg BID group and 7.7% in the placebo-treated group. The most common adverse events causing discontinuation of therapy with dronedarone 400 mg BID were gastrointestinal disorders (3.2% of patients versus 1.8% in the placebo group).

[1] = tested on: patients with severe heart failure; experiment: ANDROMEDA study, placebo-controlled, in patients with left ventricular dysfunction hospitalized with symptomatic HF; conditions: versus placebo, patients with severe heart failure requiring recent hospitalization or referral
Description: The present invention relates to the following identified and potential risk of dronedarone: mortality in patients with severe heart failure (HF) during treatment. The study referred to as ANDROMEDA was conducted in 627 patients with left ventricular dysfunction, hospitalized with symptomatic HF, requiring treatment with a diuretic, who have had within the last month at least 1 episode of dyspnea or fatigue at rest, or on slight exertion. […] The study was stopped prematurely due to an observed imbalance of deaths in the dronedarone group [n=25 versus 12 (placebo), p=0.027]. The main reason for death was worsening heart failure. Clinical judgment of the physician should guide the management plan of each patient based on individual benefit/risk assessment.

[2] = tested on: patients with atrial fibrillation (AF) or atrial flutter (AFL) or a history of AF or AFL; experiment: Clinical efficacy in patients with AF or AFL: cardiovascular hospitalization; conditions: 400 mg twice daily (BID)
Text: as §1

Q: What does the source list for `CCCCc1oc2ccc(NS(C)(=O)=O)cc2c1C(=O)c1ccc(OCCCN(CCCC)CCCC)cc1` [dronedarone, 2-n-butyl-3-[4-(3-di-n-butylaminopropoxy)benzoyl]-5-methylsulfonamido-benzofuran]?
A: Most frequent investigation abnormalities (patients with AF/AFL; dronedarone 400 mg BID): QT prolongation and increase in serum creatinine; Discontinuation due to adverse reactions (patients with AF/AFL; dronedarone 400 mg BID group, 5 AF/AFL studies, placebo 7.7%): 11.8 % of patients; Most frequent clinical adverse reactions (patients with AF/AFL; dronedarone 400 mg BID, 5 studies): diarrhea, nausea and vomiting, fatigue, asthenia, bradycardia, and rashes; Gastrointestinal disorders causing discontinuation of therapy (most common adverse events causing discontinuation) (patients with AF/AFL; dronedarone 400 mg BID, placebo 1.8%): 3.2 % of patients; Effect of intrinsic factors (race, gender, age) on incidence of any treatment-emergent adverse events (patients with AF/AFL; subgroup assessment): did not suggest any excess of adverse events in a particular subgroup; Change in serum creatinine (patients with AF/AFL; within a week, does not reflect a change in underlying renal function): small change in serum creatinine; Increase in mortality [1]: greater than two-fold increase in mortality; Reduction of the risk of cardiovascular hospitalization [2]: effective for reduction of the risk of cardiovascular hospitalization
